Results as given in article PMC6208284 (Phytotherapy Research, 2018).
Where two headings read alike, the source gives them in different places.

Tests used:
[1] = test system: Leishmania tarentolae promastigotes (LtP); assay: Oxygen consumption of LtP, Clark-type electrode (immediate effect); assay type: cell-based; details: 10-200 μM tested
Procedure: Direct inhibitors of mitochondrial ETC instantaneously influence mitochondrial oxygen consumption. To assay the effect of EO compounds on oxygen consumption of LtP, a Clark‐type oxygen electrode (Hansatech, Germany) and software MCREC were used. LtP at approximately 10^8 cells/ml in YEM (25 °C) were added and treated with increasing concentrations of EO compounds between 10 and 200 μM and for EO 5.6–89.6 μg/ml. Each concentration was assayed in quadruplicates, and the results were expressed as percentage of oxygen consumption in comparison with the untreated control LtP. The highest concentration of the vehicle (1% DMSO) caused only 2% inhibition. The uncoupling effect in short‐term and long‐term (0, 6, and 24 hr) incubations with Asc (200 μM) was studied in Oligo‐inhibited (5 μM) and uncoupler‐stimulated (0.5 μM CCCP) LtP in Schneider's medium supplemented with 6 μM hemin. Four replicates were performed for each concentration.

[2] = target: T1, succinate:ubiquinone oxidoreductase (complex II), BH‐SMP (Bos taurus, UniProt P31039+P35720+Q3T189+Q95123); assay: Succinate:ubiquinone oxidoreductase (complex II) activity in BH‐SMP, DCPIP; assay type: biochemical, bovine
T1 construct: from tissue; host or cells: bovine heart submitochondrial particles (BH-SMP)
T1 sequence (P31039 45-665 limits assumed): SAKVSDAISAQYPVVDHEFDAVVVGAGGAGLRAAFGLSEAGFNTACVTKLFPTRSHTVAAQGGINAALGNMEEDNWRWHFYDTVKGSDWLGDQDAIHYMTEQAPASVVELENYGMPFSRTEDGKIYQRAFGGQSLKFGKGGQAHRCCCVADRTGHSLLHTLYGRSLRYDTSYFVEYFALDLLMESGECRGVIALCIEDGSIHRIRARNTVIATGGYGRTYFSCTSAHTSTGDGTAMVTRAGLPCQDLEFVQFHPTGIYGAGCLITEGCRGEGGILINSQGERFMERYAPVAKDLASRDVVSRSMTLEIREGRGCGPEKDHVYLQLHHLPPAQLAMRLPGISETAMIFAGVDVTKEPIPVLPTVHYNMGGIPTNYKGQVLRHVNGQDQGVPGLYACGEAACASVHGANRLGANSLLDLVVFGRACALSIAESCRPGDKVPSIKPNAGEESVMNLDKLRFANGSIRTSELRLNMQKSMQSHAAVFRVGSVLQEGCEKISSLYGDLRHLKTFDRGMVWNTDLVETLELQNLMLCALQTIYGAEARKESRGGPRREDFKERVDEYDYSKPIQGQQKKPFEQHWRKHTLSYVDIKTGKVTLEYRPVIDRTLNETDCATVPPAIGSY
T1 sequence (Q3T189 29-280): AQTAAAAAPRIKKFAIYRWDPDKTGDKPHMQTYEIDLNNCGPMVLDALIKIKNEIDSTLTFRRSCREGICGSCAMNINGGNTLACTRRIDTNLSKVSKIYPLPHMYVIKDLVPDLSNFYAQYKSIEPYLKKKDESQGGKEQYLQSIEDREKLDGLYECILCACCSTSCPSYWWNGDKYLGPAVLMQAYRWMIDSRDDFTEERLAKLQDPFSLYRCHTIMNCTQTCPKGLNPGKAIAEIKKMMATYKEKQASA
T1 sequence (P35720 30-169): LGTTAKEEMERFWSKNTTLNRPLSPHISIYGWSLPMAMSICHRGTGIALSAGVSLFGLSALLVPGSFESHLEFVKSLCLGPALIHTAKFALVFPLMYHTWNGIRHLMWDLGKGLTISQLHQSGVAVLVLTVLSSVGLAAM
T1 sequence (Q95123 56-158): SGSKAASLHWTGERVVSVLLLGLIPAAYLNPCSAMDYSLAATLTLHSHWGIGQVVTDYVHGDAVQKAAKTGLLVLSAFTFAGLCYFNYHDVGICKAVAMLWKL
Procedure: NADH:ubiquinone oxidoreductase (complex I) and succinate:ubiquinone oxidoreductase (complex II) activities were determined in 96 well‐plates using DCPIP as the electron acceptor. In each well, 200 μl of premix containing buffer (250 mM sucrose, 20 mM triethanolamine, and 1 mM EDTA, pH 7.4), DCPIP (60 μM), BSA (3.5 mg/ml for complex I and 1 mg/ml for complex II), idebenone (50 μM), and LtP‐Mit (complex I 0.17 μg/ml protein and complex II: 51 μg/ml protein) or BH‐SMP (complexes I and II: 8 μg/ml protein) were added. In addition, in the first wells, 97 μl of premix and 3 μl of EO compounds were added. Then six serial 1:3 dilutions were carried out transferring 100 μl in each step. The reaction was started by adding 50 μl of start‐mix per well, giving final concentrations of KCN (1 mM), for complex I:NADH (300 μM) or complex II:succinate (4 mM). After start of the reaction, images of the plates were recorded with a Canon EOS 300D camera (PLReader software, red–green channel) each 10 min for LtP‐Mit and 3 min for BH‐SMP (20 absorbance measurements). For each EO compound, percentage of inhibition was obtained with respect to controls (set to 100%) treated with maximum volume of vehicle (DMSO) introduced by test compound stocks.

[3] = target: T2, cytochrome bc 1 complex purified from Saccharomyces cerevisiae (Saccharomyces cerevisiae, UniProt P00163+P07143+P08067); assay: dUQH2:cyt c3+ oxidoreductase activity of isolated ScY‐bc 1; assay type: biochemical
T2 construct: endogenous in cells; host or cells: Native complex purified in house from yeast submitochondrial particles (Triton X-100, hydroxyapatite)
Procedure: (§1) Cytochrome bc 1 complex was obtained from ScY‐SMP and BH‐SMP following published methodology (Geier, Schägger, Brandt, Colson, & von Jagow, 1992) with minor modifications as described below. SMP were resuspended in 1.1% Triton X‐100 and […] phenylmethylsulfonyl fluoride, pH 7.2, and centrifuged for 1 hr at 100,000 g. The bc 1 complex in the sediment was solubilized with 2.2% Triton X‐100, 600 mM NaCl, 10 mM KH2PO4, and 10 mM EDTA, pH 7.2. After centrifugation at 100,000 g for 1 hr, the supernatant was mixed with 50 ml of hydroxyapatite, equilibrated with 0.5% Triton X‐100, 250 mM NaCl, and 100 mM NaHPO4, pH 7.2. After washing the hydroxyapatite with 50 ml of equilibration buffer ([…], 100 mM NaHPO4, and 250 mM NaCl), the bc 1 complexes from ScY‐SMP and BH‐SMP (ScY‐bc 1 and BH‐bc 1, respectively) were eluted from hydroxyapatite with 250 mM KH2PO4 and 0.25% Triton X‐100, pH 7.2, and stored in liquid nitrogen.
(§2) To measure the ubiquinol:cyt c ^3+ oxidoreductase (complex III) activity, the reduction of 100 μM cyt c ^3+ at 550 nm using 540 nm as reference was monitored in the presence of the artificial substrate decylubiquinol (dUQH2, 75 μM), which was prepared from dUQ by reduction (Müllebner et al., 2010). The dUQH2:cyt c ^3+ oxidoreductase activities of 40 μg protein/ml of LtP‐Mit or 3.2 μg protein/ml of BH‐SMP were measured in 1 ml of buffer containing 250 mM sucrose, 50 mM KH2PO4, 0.2 mM EDTA (pH 7.2), 2 mM KCN, and 4 mM NaN3. Respective EO compounds were added 50 s after starting the time scan, and the reaction was started after 100 s with dUQH2 and was monitored for additional 150 s. The activity of noninhibited dUQH2:cyt c ^3+ oxidoreductase activity was measured in the presence of the vehicle for the respective inhibitor (DMSO). All inhibitor concentrations were tested in triplicate. The reduction rates for cyt c ^3+ were calculated from the time trace of the absorption difference at 550 − 540 nm (ε550–540 nm = 19 mmol^−1 L cm^−1). […] Three replicates were measured for each concentration. […]

[4] = target: T3, cytochrome bc 1 complex purified from Bos taurus (Bos taurus, UniProt P00125+P00157+P13272); assay: dUQH2:cyt c3+ oxidoreductase activity of isolated BH‐bc 1; assay type: biochemical
T3 construct: from tissue; host or cells: Native complex purified in house from bovine heart submitochondrial particles (Triton X-100, hydroxyapatite)
Procedure: as §1, §2

[5] = test system: Leishmania amazonensis promastigotes (LaP); set-up: method as in Monzote, Garcia, et al., 2014; details: ref Monzote, Garcia, et al., 2014, cited from earlier work; for IC50: previous study, read-out: IC50 against LaP
[6] = read-out: IC50 Complex II BH‐SMP
[7] = immediate inhibition, five experiments, read-out: IC50 ± SD ScY‐bc 1
[8] = immediate inhibition, five experiments, read-out: IC50 ± SD BH‐bc 1

C=C1CC[C@H]2O[C@]2(C)CC[C@@H]2[C@@H]1CC2(C)C [Caryo, caryophyllene oxide]
Inhibition of LtP oxygen consumption (in words) [1]: strongly inhibited LtP oxygen consumption
IC50 ([1]; Leishmania tarentolae, read-out: IC50, inhibition of LtP oxygen consumption): 98 ± 2 µM
% of inhibition at highest concentration tested, Complex II BH‐SMP [2]: 16.3%
IC50 [2, 6]: > 100 µM
IC50 [3, 7]: 179 ± 1 µM
IC50 [4, 8]: 197 ± 1 µM
IC50 [5]: 22.2 ± 10.4 µM

CC(C)C12C=CC(C)(CC1)OO2 (centres unmarked) [Asc, ascaridole]
Inhibition of LtP oxygen consumption (in words) [1]: failed to strongly inhibit oxygen consumption
IC50 [2]: > 100 µM
% of inhibition at highest concentration tested, Complex II BH‐SMP [2]: 21.2%
IC50 [3]: 675 ± 6 µM
IC50 [4]: 381 ± 9 µM
IC50 [5]: 0.6 ± 0.06 µM
IC50 values for L. amazonensis in the presence of iron chelators ([5]; with iron chelators): strongly increased

Cc1ccc(C(C)C)cc1O [Car, carvacrol]
Inhibition of LtP oxygen consumption (in words) [1]: failed to strongly inhibit oxygen consumption
% of inhibition at highest concentration tested, Complex II BH‐SMP [2]: 21.5%
IC50 [2, 6]: > 100 µM
IC50 [3, 7]: 941 ± 41 µM
IC50 [4, 8]: 421 ± 4 µM
IC50 [5]: 101 ± 30 µM
